Read-outs that look alike come from different tables or passages of the source.
Experiments:
ERK protein = ERK protein (Mus musculus, UniProt P63085); experiment: TdF (Temperature Dependence Fluorescence, thermal shift) assay for ERK; format: binding
From the text: Assays: TdF Assay for ERK […] The TdF assay was mainly conducted in the 96-well based CHROMO-4 real time fluorescence plate reader (BioRad). The Sypro Orange (Sigma-Aldrich), environmentally sensitive fluorescence dye, was used to monitor the protein folding-unfolding transition. Protein-ligand binding was gauged by the change (or shift) in the unfolding transition temperature (ΔTm) acquired at protein alone with respect to protein in the presence of ligand of interest. Compound of interest was first prepared in DMSO stock (typical concentration: 10 mM). […] Final percentage of DMSO resided in the sample was 2%. The sample plate was heated from 30° C. to 90° C. with thermal ramping rate of 1° C./min. […] The instrument thermal stability was ±0.2° C. The melting temperatures (Tm) for ERK protein under aforementioned conditions occurred at 61.0±0.2° C. and 64.8±02° C. respectively. Theoretical Basis for TdF-Based Ligand Binding Affinity Constant […] In brief, the binding constant of the ligand at the Tm is expressed as below: [formula] where T0 is the midpoint of unfolding for unliganded protein and Tm is the midpoint of unfolding in presence of ligand. [LTm] is free ligand at Tm. The ΔHu and ΔCpu are the enthalpy of unfolding and heat capacity change of unfolding for the protein respectively. Following algorithm derived by Winsor and coworker, the T0, ΔHu and ΔCpu can be determined separately from nonlinear regression fitting the protein alone melting curve: Where F(T) is the observed fluorescence intensity at any temperature T, Yn and Yu are the predicted fluorescence intensities for fully folded and unfolded protein, respectively; mn and mu are slope correction for changes in Yn and Yu with respect to changes in temperature (analogously replace T0 with Tm in the above equation for liganded protein to yield Tm). […] [formula] where ΔHL (T) is the van't Hoff enthalpy of ligand binding at temperature T and ΔCpL is the heat capacity upon ligand binding. For simplicity, the ΔCpL and ΔHL (T) were set to zero and −7 kcal/mol respectively.

[1] = molecular target: fully phosphorylated, active Mouse ERK2 protein (Mus musculus (Mouse), UniProt P63085); experiment: Active ERK2 (aERK) IMAP assay, condition 1; format: biochemical; conditions: aERK assay condition 1, 30 μM ATP
Experimental: Active ERK2 (aERK) Assay: (Unless Indicated Otherwise, the Data Provided for aERK was obtained using Condition 1)
Activated ERK2 activity was also determined in the IMAP assay format using the procedure outlined above. […] Reactions proceeded for 30 minutes before termination by addition of 60 μl IMAP detection beads in binding buffer. Plates were read as above after 30 minute binding equilibration.

[2] = 3 μM ERK protein, uncertainty estimated ±50%, read-out: Kd TdF

fully phosphorylated, active Mouse ERK2 protein, sequence (P63085 whole entry): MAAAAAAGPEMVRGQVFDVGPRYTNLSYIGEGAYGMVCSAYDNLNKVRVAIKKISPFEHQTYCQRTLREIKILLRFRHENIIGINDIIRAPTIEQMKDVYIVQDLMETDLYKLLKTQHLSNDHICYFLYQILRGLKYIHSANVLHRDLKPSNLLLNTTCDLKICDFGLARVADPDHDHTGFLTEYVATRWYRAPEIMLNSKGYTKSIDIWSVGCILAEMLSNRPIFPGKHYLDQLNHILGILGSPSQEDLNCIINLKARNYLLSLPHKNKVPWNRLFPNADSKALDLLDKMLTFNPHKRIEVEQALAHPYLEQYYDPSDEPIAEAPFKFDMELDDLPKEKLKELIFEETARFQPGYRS
ERK protein, sequence (P63085 2-358 limits assumed): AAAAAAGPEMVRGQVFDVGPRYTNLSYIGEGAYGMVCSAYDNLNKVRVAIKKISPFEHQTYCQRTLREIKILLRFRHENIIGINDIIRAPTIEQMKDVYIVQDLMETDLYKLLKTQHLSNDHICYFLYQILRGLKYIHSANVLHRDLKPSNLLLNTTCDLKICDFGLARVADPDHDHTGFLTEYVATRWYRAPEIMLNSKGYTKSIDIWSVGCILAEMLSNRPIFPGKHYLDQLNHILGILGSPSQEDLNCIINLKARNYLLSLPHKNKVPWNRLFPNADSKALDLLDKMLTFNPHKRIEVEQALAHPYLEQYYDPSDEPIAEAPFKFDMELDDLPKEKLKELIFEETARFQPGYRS

Row | SMILES | Kd (ERK protein; [2]) [nM] | IC50 [1] [nM] | Kd (ERK protein; read-out: Kd TdF, 3 μM ERK protein, uncertainty estimated ±50%) [nM]
1 | COc1cc(-c2n[nH]c3ccc(C(=O)N[C@@H]4CCCN(Cc5ccccc5F)C4)cc23)ccn1 | 0.81 | 112 | 
2 | O=C(N[C@@H]1CCCN(Cc2ccccc2F)C1)c1ccc2[nH]nc(-c3ccnc(C4CC4)c3)c2c1 | 0.4 | 33.2 | 
3 | Cc1cc(-c2n[nH]c3ccc(C(=O)N[C@@H]4CCCN(Cc5ccccc5F)C4)cc23)ccn1 | 0.5 | 10.7 | 
4 | O=C(N[C@@H]1CCCN(Cc2ccccc2F)C1)c1ccc2[nH]nc(-c3ccnc(C(F)(F)F)c3)c2c1 | 6.6 | 507 | 
5 | COc1cccc(F)c1CN1CCCC(NC(=O)c2ccc3[nH]nc(-c4ccc5c(c4)CCO5)c3c2)C1 (centres unmarked) | 0.52 | 33 | 
6 | CC1CC(NC(=O)c2ccc3[nH]nc(-c4ccncc4)c3c2)CN(Cc2ccccc2F)C1 (centres unmarked) | 0.052 | 16.4 | 
7 | Cn1cc(CN2CCC[C@@H](NC(=O)c3ccc4[nH]nc(-c5ccc6c(c5)CCO6)c4c3)C2)c2ccccc21 | 11 | 158 | 
8 | Cc1cc(-c2n[nH]c3ccc(C(=O)N[C@@H]4CCCN(Cc5ccccc5O)C4)cc23)ccn1 | 2.36 | 140 | 
9 | COc1cccc(F)c1CN1CCC[C@@H](NC(=O)c2ccc3[nH]nc(-c4ccnc(C)c4)c3c2)C1 | 0.22 | 4.98 | 
10 | Cc1cc(-c2n[nH]c3ccc(C(=O)N[C@@H]4CCCN(Cc5c(F)cccc5F)C4)cc23)ccn1 | 0.51 | 29.7 | 
11 | CC(=O)Nc1cc(-c2n[nH]c3ccc(C(=O)N[C@@H]4CCCN(Cc5ccccc5F)C4)cc23)ccc1O | 0.48 | 74.7 | 
12 | COc1cccc(F)c1CN1CCC[C@@H](NC(=O)c2ccc3[nH]nc(-c4ccc(O)c(NC(C)=O)c4)c3c2)C1 | 0.66 | 64.9 | 
13 | CC(=O)Nc1cc(-c2n[nH]c3ccc(C(=O)N[C@@H]4CCCN(Cc5c(F)cccc5F)C4)cc23)ccc1O | 1.29 | 224 | 
14 | COc1ccccc1CN1CCC[C@@H](NC(=O)c2ccc3[nH]nc(-c4ccc(O)c(NC(C)=O)c4)c3c2)C1 | 1.29 | 254 | 
15 | CCCOc1ccccc1CN1CCC[C@@H](NC(=O)c2ccc3[nH]nc(-c4ccnc(C)c4)c3c2)C1 | 1.72 | 246 | 
16 | COc1cccc(F)c1CN1CCC[C@@H](NC(=O)c2ccc3[nH]nc(-c4ccc5sccc5c4)c3c2)C1 | 0.15 | 807 | 
17 | COc1cccc(F)c1CN1CCC[C@@H](NC(=O)c2ccc3[nH]nc(-c4ccc5occc5c4)c3c2)C1 | 0.21 | 495 | 
18 | COc1cccc(F)c1CN1CCC[C@@H](NC(=O)c2ccc3[nH]nc(-c4ccc5cn[nH]c5c4)c3c2)C1 | 0.27 | 163 | 
19 | COc1cccc(F)c1CN1CCC[C@@H](NC(=O)c2ccc3[nH]nc(-c4ccc(S(=O)(=O)N(C)C)cc4)c3c2)C1 | 2.63 | 359 | 
20 | COc1cccc(F)c1CN1CCC[C@@H](NC(=O)c2ccc3[nH]nc(-c4cccc(NC(C)=O)c4)c3c2)C1 | 1.38 | 286 | 
21 | COc1cccc(F)c1CN1CCC[C@@H](NC(=O)c2ccc3[nH]nc(-c4ccc(C(C)=O)cc4)c3c2)C1 | 0.9 | 189 | 
22 | COc1cccc(F)c1CN1CCC[C@@H](NC(=O)c2ccc3[nH]nc(-c4cccc(C(C)=O)c4)c3c2)C1 | 2.01 | 609 | 
23 | COc1cccc(F)c1CN1CCC[C@@H](NC(=O)c2ccc3[nH]nc(-c4ccc(C#N)cc4)c3c2)C1 | 0.24 | 155 | 
24 | COc1cccc(F)c1CN1CCC[C@@H](NC(=O)c2ccc3[nH]nc(-c4cccc(C#N)c4)c3c2)C1 | 0.83 | 264 | 
25 | COc1cccc(F)c1CN1CCC[C@@H](NC(=O)c2ccc3[nH]nc(-c4ccc(S(C)(=O)=O)cc4)c3c2)C1 | 1.37 | 195 | 
26 | COc1cccc(F)c1CN1CCC[C@@H](NC(=O)c2ccc3[nH]nc(-c4ccc(N)c(OC(C)=O)c4)c3c2)C1 | 6.5 | 483 | 
27 | Cc1cc(-c2n[nH]c3ccc(C(=O)N[C@@H]4CCCN(Cc5csc6ccccc56)C4)cc23)ccn1 | 0.53 | 18.7 | 
28 | Cc1cc(-c2n[nH]c3ccc(C(=O)N[C@@H]4CCCN(Cc5ccccc5Cl)C4)cc23)ccn1 | 0.2 | 28.1 | 

Row | SMILES | Kd (ERK protein; [2]) [nM] | IC50 [1] [nM] | Kd (ERK protein; read-out: Kd TdF, 3 μM ERK protein, uncertainty estimated ±50%) [nM]
29 | CC(=O)n1cc(CN2CCC[C@@H](NC(=O)c3ccc4[nH]nc(-c5ccnc(C)c5)c4c3)C2)c2ccccc21 | 1.95 | 154 | 
30 | Cc1cc(-c2n[nH]c3ccc(C(=O)N[C@@H]4CCCN(Cc5c(C)cccc5C)C4)cc23)ccn1 | 0.13 | 89 | 
31 | Cc1cc(-c2n[nH]c3ccc(C(=O)N[C@@H]4CCCN(Cc5cn(C)c6ccccc56)C4)cc23)ccn1 | 1.38 | 21.5 | 
32 | Cc1cc(-c2n[nH]c3ccc(C(=O)N[C@@H]4CCCN(Cc5cc6ccccc6n5C)C4)cc23)ccn1 | 0.21 | 41.7 | 
33 | CCn1cc(-c2n[nH]c3ccc(C(=O)N[C@@H]4CCCN(Cc5c(F)cccc5OC)C4)cc23)cn1 | 1.59 | 114 | 
34 | COc1cccc(F)c1CN1CCC[C@@H](NC(=O)c2ccc3[nH]nc(-c4ccc5cncn5c4)c3c2)C1 | 0.1 | 4.02 | 
35 | COc1cccc(F)c1CN1CCC[C@@H](NC(=O)c2ccc3[nH]nc(-c4ccc5nc(C)oc5c4)c3c2)C1 | 0.1 | 16.4 | 
36 | COc1cccc(F)c1CN1CCC[C@@H](NC(=O)c2ccc3[nH]nc(-c4ccc5oc(C)nc5c4)c3c2)C1 | 0.6 | 45.6 | 
37 | Cc1cc(-c2n[nH]c3ccc(C(=O)N[C@@H]4CCCN(Cc5cc6ccccc6o5)C4)cc23)ccn1 | 1.43 | 15.1 | 
38 | Cc1cc(-c2n[nH]c3ccc(C(=O)N[C@@H]4CCCN(Cc5cc(F)c(Cl)cc5Cl)C4)cc23)ccn1 | 9.76 | 660 | 
39 | Cc1cc(-c2n[nH]c3ccc(C(=O)N[C@@H]4CCCN(Cc5cc6ccccc6s5)C4)cc23)ccn1 | 3.97 | 90.1 | 
40 | Cc1cc(-c2n[nH]c3ccc(C(=O)N[C@@H]4CCCN(Cc5ccncn5)C4)cc23)ccn1 | 20.5 | 507 | 
41 | COc1cccc(CN2CCC[C@@H](NC(=O)c3ccc4[nH]nc(-c5ccnc(C)c5)c4c3)C2)n1 | 2.33 | 220 | 
42 | Cc1cc(-c2n[nH]c3ccc(C(=O)N[C@@H]4CCCN(C5CCc6ccccc65)C4)cc23)ccn1 (some centres unmarked) | 0.28 | 65.4 | 
43 | COc1cccc(F)c1CN1C[C@H](C)C[C@@H](NC(=O)c2ccc3[nH]nc(-c4ccnc(C)c4)c3c2)C1 | 3.33 | 204 | 
44 | COc1cccc(F)c1CN1C[C@@H](C)C[C@@H](NC(=O)c2ccc3[nH]nc(-c4ccc5nccn5c4)c3c2)C1 | 0.01 | 5.84 | 
45 | COc1cccc(F)c1CN1C[C@H](C)C[C@@H](NC(=O)c2ccc3[nH]nc(-c4ccc5nccn5c4)c3c2)C1 | 0.03 | 10.6 | 
46 | COc1cccc(F)c1CN1C[C@@H](C)C[C@@H](NC(=O)c2ccc3[nH]nc(-c4ccc5nn(C)cc5c4)c3c2)C1 | 0.02 | 6.1 | 
47 | COc1cccc(F)c1CN1CC(NC(=O)c2ccc3[nH]nc(-c4ccc5nccn5c4)c3c2)CC(C(=O)O)C1 (centres unmarked) | 0.26 | 64.7 | 
48 | Cc1cc(-c2n[nH]c3ccc(C(=O)N[C@@H]4CCCN(C(C)c5ccccc5)C4)cc23)ccn1 (some centres unmarked) | 4.4 | 128 | 
49 | Cc1cc(-c2n[nH]c3ccc(C(=O)NC4CCCN(Cc5ncccn5)C4)cc23)ccn1 (centres unmarked) | 130 | 923 | 
50 | COc1cccc(F)c1CN1CC(CO)CC(NC(=O)c2ccc3[nH]nc(-c4ccc5nccn5c4)c3c2)C1 (centres unmarked) | 1.68 | 140 | 
51 | Cc1cc(-c2n[nH]c3ccc(C(=O)N[C@@H]4CCCN(CCc5ccccc5F)C4)cc23)ccn1 | 4.8 | 98.8 | 
52 | Cc1cc(-c2n[nH]c3ccc(C(=O)N[C@@H]4CCCN(CCc5ccccc5C(F)(F)F)C4)cc23)ccn1 |  | 86.9 | 2.2
53 | Cc1cc(-c2n[nH]c3ccc(C(=O)N[C@@H]4CCCN(CC(=O)c5ccccc5F)C4)cc23)ccn1 | 2.4 | 32.9 | 
54 | COc1cccc(F)c1CN1C[C@H]2C[C@@H]1[C@H](NC(=O)c1ccc3[nH]nc(-c4ccc5nn(C)cc5c4)c3c1)C2 | 85.2 | 527 | 
55 | Cn1cc2cc(-c3n[nH]c4ccc(C(=O)NC5C[C@@H]6C[C@H]5N(Cc5c(F)cccc5F)C6)cc34)ccc2n1 (some centres unmarked) | 3.29 | 881 | 

From patent US8999957B2, “Heterocyclic compounds as ERK inhibitors” (Merck Sharp & Dohme Corp., priority 2010, dated 2015)
